We go through five molecules from patent US20250368649A1, “TETRAHYDROPYRIDOPYRIMIDINE PAN-KRAS INHIBITORS” (Mirati Therapeutics, Inc., priority 2022, published 2025).

Structures are written as SMILES.

For one test, the target named is KRas WT (Homo sapiens, UniProt P01116). The experiment in a line: KRas binding assay (TR-FRET displacement), KRas WT. As to conditions: single point, 10 nM compound. On the technique in general: Time-resolved FRET reads energy transfer from a long-lived donor to a nearby acceptor.
In a further test the target is KRas G12A (Homo sapiens, UniProt P01116, G12A). Format: binding. As to conditions: single point, 10 nM compound, read-out: Binding to KRas (% inhibition at 10 nM) G12A.
A further test addresses KRas G12C (Homo sapiens, UniProt P01116, G12C). In kind it is binding. As to conditions: single point, 10 nM compound, read-out: Binding to KRas (% inhibition at 10 nM) G12C.
The target in the next test is KRas G12S (Homo sapiens, UniProt P01116, G12S). Format: binding. As to conditions: single point, 10 nM compound, read-out: Binding to KRas (% inhibition at 10 nM) G12S.
The target of the next test is KRas G13D (Homo sapiens, UniProt P01116, G13D). In kind it is binding. As to conditions: single point, 10 nM compound, read-out: Binding to KRas (% inhibition at 10 nM) G13D.
The target of the next test is KRas Q61H (Homo sapiens, UniProt P01116, Q61H). The experiment in a line: KRas binding assay (TR-FRET displacement), KRas Q61H. As to conditions: single point, 10 nM compound.
The next test deals with MKN1 cells. The experiment in a line: Inhibition of KRas-mediated phosphorylation of ERK (Cisbio HTRF pERK), MKN1 cells. Format: cell-based. As to conditions: Homo sapiens, MKN-1, 3 hour compound incubation, Cisbio pERK HTRF. The gist of the method: (§1)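 On the first day, plate 6,000 cells into each well in RPMI medium with 10% fetal bovine serum.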
Another test has as its system PSN1 cells. The experiment in a line: Inhibition of KRas-mediated phosphorylation of ERK (Cisbio HTRF pERK), PSN1 cells. In kind it is cell-based. As to conditions: Homo sapiens, PSN1, 3 h, 3 hour compound incubation, Cisbio pERK HTRF. The gist of the method: as §1
A further test has as its system ASPC1 cells. Put plainly: Inhibition of KRas-mediated phosphorylation of ERK (Cisbio HTRF pERK), ASPC1 cells. In kind it is cell-based. As to conditions: Homo sapiens, AsPC-1 cells; for IC50: ASPC1, 3 h, 3 hr compound incubation, Cisbio pERK HTRF.
The test system of the next test is H727 cells. The experiment in a line: Inhibition of KRas-mediated phosphorylation of ERK (Cisbio HTRF pERK), H727 cells. Format: cell-based. As to conditions: Homo sapiens; for IC50: NCI-H727, 3 h, 3 hr compound incubation, Cisbio pERK HTRF.
A further test deals with A549 cells. Put plainly: Inhibition of KRas-mediated phosphorylation of ERK (Cisbio HTRF pERK), A549 cells. Format: cell-based. As to conditions: Homo sapiens; for IC50: A549, 3 h, 3 hr compound incubation, Cisbio pERK HTRF; for inhibition at 0.1 µM: single point at 100 nM, 3 hrs compound incubation.
The subject of the next test is H460 cells. Put plainly: Inhibition of KRas-mediated phosphorylation of ERK (Cisbio HTRF pERK), H460 cells. Format: cell-based. As to conditions: Homo sapiens, NCI-H460, 3 h, 3 hr compound incubation, Cisbio pERK HTRF.
The next test has as its system HCT116 cells. Put plainly: Inhibition of KRas-mediated phosphorylation of ERK (Cisbio HTRF pERK), HCT116 cells. Format: cell-based. As to conditions: Homo sapiens, HCT-116, 3 h, 3 hr compound incubation, Cisbio pERK HTRF.
For the next test, the system named is H358 cells. The experiment in a line: Inhibition of KRas-mediated phosphorylation of ERK (Cisbio HTRF pERK), H358 cells. In kind it is cell-based. As to conditions: Homo sapiens; for IC50: NCI-H358, 3 h, 3 hr compound incubation, Cisbio pERK HTRF; for inhibition at 0.1 µM: NCI-H358, single point at 100 nM, 3 hrs compound incubation.
The target of a further test is KRas G12D (Homo sapiens, UniProt P01116, G12D). The experiment in a line: biochemical. As to conditions: Binding to KRas (IC50 nM) G12D, TR-FRET displacement, KRas G12D.
The next test addresses KRas G12R (Homo sapiens, UniProt P01116, G12R). The experiment in a line: biochemical. As to conditions: Binding to KRas (IC50 nM) G12R, TR-FRET displacement, KRas G12R.
The target in another test is KRas G12V (Homo sapiens, UniProt P01116, G12V). The experiment in a line: biochemical. As to conditions: Binding to KRas (IC50 nM) G12V, TR-FRET displacement, KRas G12V.
Chain of KRas G12V (P01116 1-169 isoform P01116-2 G12V): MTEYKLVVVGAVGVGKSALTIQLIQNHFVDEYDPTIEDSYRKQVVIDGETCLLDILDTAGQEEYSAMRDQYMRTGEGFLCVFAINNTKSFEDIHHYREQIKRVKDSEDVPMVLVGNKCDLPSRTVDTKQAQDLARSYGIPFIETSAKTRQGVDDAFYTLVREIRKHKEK

Chain of KRas G12A (P01116 1-169 isoform P01116-2 G12A): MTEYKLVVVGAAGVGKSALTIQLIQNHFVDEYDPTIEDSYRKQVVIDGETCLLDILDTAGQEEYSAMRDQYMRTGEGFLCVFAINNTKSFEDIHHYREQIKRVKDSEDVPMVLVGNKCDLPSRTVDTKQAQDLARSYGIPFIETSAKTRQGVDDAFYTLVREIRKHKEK
Chain of KRas G12D (P01116 1-169 isoform P01116-2 G12D): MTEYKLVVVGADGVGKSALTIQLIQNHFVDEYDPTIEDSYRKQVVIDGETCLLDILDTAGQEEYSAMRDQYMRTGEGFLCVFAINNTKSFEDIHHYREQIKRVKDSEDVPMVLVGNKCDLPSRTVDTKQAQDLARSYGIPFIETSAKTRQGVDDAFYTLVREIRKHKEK
Chain of KRas G12S (P01116 1-169 isoform P01116-2 G12S): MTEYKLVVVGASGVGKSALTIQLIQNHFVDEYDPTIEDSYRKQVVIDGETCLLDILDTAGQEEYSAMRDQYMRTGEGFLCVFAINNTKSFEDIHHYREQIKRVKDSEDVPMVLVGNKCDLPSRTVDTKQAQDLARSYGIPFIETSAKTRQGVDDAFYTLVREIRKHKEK
Chain of KRas G12C (P01116 1-169 isoform P01116-2 G12C): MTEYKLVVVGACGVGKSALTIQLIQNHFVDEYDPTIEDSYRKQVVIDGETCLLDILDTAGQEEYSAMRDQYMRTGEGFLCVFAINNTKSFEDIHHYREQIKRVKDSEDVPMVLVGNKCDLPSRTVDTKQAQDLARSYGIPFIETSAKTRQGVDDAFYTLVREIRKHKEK
Chain of KRas WT (P01116 1-169 isoform P01116-2): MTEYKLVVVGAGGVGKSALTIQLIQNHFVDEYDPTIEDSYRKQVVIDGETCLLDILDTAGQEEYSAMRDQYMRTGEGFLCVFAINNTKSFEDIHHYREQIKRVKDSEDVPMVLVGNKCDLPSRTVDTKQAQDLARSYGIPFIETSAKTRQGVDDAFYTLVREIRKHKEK
Chain of KRas G12R (P01116 1-169 isoform P01116-2 G12R): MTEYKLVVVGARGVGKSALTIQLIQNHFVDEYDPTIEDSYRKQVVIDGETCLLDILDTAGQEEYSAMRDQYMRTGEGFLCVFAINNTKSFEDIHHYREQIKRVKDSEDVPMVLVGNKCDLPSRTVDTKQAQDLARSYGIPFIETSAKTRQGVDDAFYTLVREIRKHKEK
Chain of KRas G13D (P01116 1-169 isoform P01116-2 G13D): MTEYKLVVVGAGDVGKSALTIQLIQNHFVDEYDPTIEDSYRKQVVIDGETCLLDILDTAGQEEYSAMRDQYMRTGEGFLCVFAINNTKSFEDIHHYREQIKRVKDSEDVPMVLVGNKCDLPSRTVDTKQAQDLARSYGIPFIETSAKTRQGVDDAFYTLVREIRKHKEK
Chain of KRas Q61H (P01116 1-169 isoform P01116-2 Q61H): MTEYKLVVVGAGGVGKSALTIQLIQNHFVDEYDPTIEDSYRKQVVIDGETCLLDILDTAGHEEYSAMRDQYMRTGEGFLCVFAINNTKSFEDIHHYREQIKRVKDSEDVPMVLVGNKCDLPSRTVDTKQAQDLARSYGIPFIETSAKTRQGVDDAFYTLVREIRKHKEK

As for `CCc1c(F)ccc2cc(O)cc(N3CCc4c(nc(OC[C@@]56CCCN5C[C@H](F)C6)nc4N4CCCn5nc(C(=O)NCCOC)cc5C4)C3)c12` [Example 375, 5-(7-(8-ethyl-7-fluoro-3-hydroxynaphthalen-1-yl)-2-(((2R,7aS)-2-fluorohexahydro-1H-pyrrolizin-7a-yl)methoxy)-5,6,7,8-tetrahydropyrido[3,4-d]pyrimidin-4-yl)-N-(2-methoxyethyl)-5,6,7,8-tetrahydro-4H-pyrazolo[1,5-a][1,4]diazepine-2-carboxamide], the inhibition (in general, the relative decrease from the control value, in per cent) at 0.01 µM at KRas WT came to 93%; on KRas G12A, 94%; on KRas G12C, 98%; on KRas G12S, 98%; at KRas G13D it was 93%; on KRas Q61H it was 93%. The IC50 – broadly, the concentration that gives 50% inhibition – in the test with MKN1 cells is 16.6 nM; in the test on PSN1 cells, 3500 nM; with ASPC1 cells it was 4 nM; in the test with H727 cells, 7 nM; in the test on A549 cells, 20 nM; in the test on H460 cells it was 36 nM. In addition, the half-maximal inhibitory concentration (IC50) is 91 nM in the test with HCT116 cells; 4 nM with H358 cells; under 2 nM at KRas G12D; under 2 nM on KRas G12R; under 2 nM on KRas G12V. Further, the inhibition at 0.1 µM is 68% with A549 cells and 102% in the test on H358 cells.
In the case of `CCc1c(F)ccc2cc(O)cc(N3CCc4c(nc(OC[C@@]56CCCN5C[C@H](F)C6)nc4N4CCCn5nc(C(=O)NC6CCC6)cc5C4)C3)c12` [Example 378, N-cyclobutyl-5-(7-(8-ethyl-7-fluoro-3-hydroxynaphthalen-1-yl)-2-(((2R,7aS)-2-fluorohexahydro-1H-pyrrolizin-7a-yl)methoxy)-5,6,7,8-tetrahydropyrido[3,4-d]pyrimidin-4-yl)-5,6,7,8-tetrahydro-4H-pyrazolo[1,5-a][1,4]diazepine-2-carboxamide], the inhibition at 0.01 µM on KRas WT worked out at 91%; on KRas G12A, 90%; at KRas G12C, 97%; at KRas G12S, 96%; on KRas G13D, 90%; at KRas Q61H it was 91%. Further, the IC50 in the test with MKN1 cells is 26.2 nM; with PSN1 cells, 5170 nM; in the test on ASPC1 cells it was 3 nM; with H727 cells, 7 nM; with A549 cells it was 39 nM; in the test on H460 cells, 46 nM. Also, the 50% inhibitory concentration (IC50) in the test with HCT116 cells is 160 nM; in the test with H358 cells, 9 nM; on KRas G12D it was under 2 nM; on KRas G12R, under 2 nM; on KRas G12V, under 2 nM. For the same molecule, the inhibition at 0.1 µM amounted to 69% in the test with A549 cells and 105% in the test with H358 cells.
As to `CCNC(=O)c1nn2c(c1C)CN(c1nc(OC[C@@]34CCCN3C[C@H](F)C4)nc3c1CCN(c1cc(O)cc4ccc(F)c(CC)c14)C3)CCC2` [Example 379, N-ethyl-5-(7-(8-ethyl-7-fluoro-3-hydroxynaphthalen-1-yl)-2-(((2R,7aS)-2-fluorohexahydro-1H-pyrrolizin-7a-yl)methoxy)-5,6,7,8-tetrahydropyrido[3,4-d]pyrimidin-4-yl)-3-methyl-5,6,7,8-tetrahydro-4H-pyrazolo[1,5-a][1,4]diazepine-2-carboxamide], the inhibition at 0.01 µM amounted to 93% on KRas WT; 96% on KRas G12A; 99% on KRas G12C; 98% at KRas G12S; 92% on KRas G13D; 92% on KRas Q61H. The 50% inhibitory concentration (IC50) with MKN1 cells was 12.3 nM; in the test on PSN1 cells, 5330 nM; in the test with ASPC1 cells it was 2 nM; in the test with H727 cells, 3 nM; in the test with A549 cells, 17 nM; in the test on H460 cells, 33 nM. Also, the IC50 was 159 nM in the test with HCT116 cells; 3 nM in the test on H358 cells; under 2 nM at KRas G12D; under 2 nM on KRas G12R; under 2 nM on KRas G12V. Besides, the values for the inhibition at 0.1 µM in the test on A549 cells and in the test on H358 cells were 91% and 105%, respectively.
`CCc1c(F)ccc2cc(O)cc(N3CCc4c(nc(OC[C@@]56CCCN5C[C@H](F)C6)nc4N4CCCn5nc(C(=O)NC)c(C)c5C4)C3)c12` [Example 380, 5-(7-(8-ethyl-7-fluoro-3-hydroxynaphthalen-1-yl)-2-(((2R,7aS)-2-fluorohexahydro-1H-pyrrolizin-7a-yl)methoxy)-5,6,7,8-tetrahydropyrido[3,4-d]pyrimidin-4-yl)-N,3-dimethyl-5,6,7,8-tetrahydro-4H-pyrazolo[1,5-a][1,4]diazepine-2-carboxamide]: the inhibition at 0.01 µM on KRas WT amounted to 93%; on KRas G12A, 96%; at KRas G12C, 99%; at KRas G12S, 99%; at KRas G13D, 94%; on KRas Q61H, 95%. Further, the IC50 in the test with MKN1 cells was found to be 10.8 nM; with PSN1 cells, 4720 nM; with ASPC1 cells, 2 nM; in the test with H727 cells, 5 nM; in the test with A549 cells, 2 nM; with H460 cells, 30 nM. The IC50 is 95 nM in the test with HCT116 cells; 3 nM with H358 cells; under 2 nM at KRas G12D; under 2 nM on KRas G12R; under 2 nM on KRas G12V. The inhibition at 0.1 µM in the test with ASPC1 cells (ASPC1, single point at 100 nM, 3 hrs compound incubation) was 94%; in the test with H727 cells (NCI-H727, single point at 100 nM, 3 hrs compound incubation), 69%; in the test on A549 cells, 81%; in the test with H358 cells it was 93%.
Take `CCc1c(F)ccc2cc(O)cc(N3CCc4c(nc(OC[C@@]56CCCN5C[C@H](F)C6)nc4N4CCCn5nc(C(=O)N(C)C(C)C)cc5C4)C3)c12` [Example 381, 5-(7-(8-ethyl-7-fluoro-3-hydroxynaphthalen-1-yl)-2-(((2R,7aS)-2-fluorohexahydro-11H-pyrrolizin-7a-yl)methoxy)-5,6,7,8-tetrahydropyrido[3,4-d]pyrimidin-4-yl)-N-isopropyl-N-methyl-5,6,7,8-tetrahydro-4H-pyrazolo[1,5-a][1,4]diazepine-2-carboxamide]: the inhibition at 0.01 µM on KRas WT is 97%; at KRas G12A it was 97%; on KRas G12C, 99%; at KRas G12S it was 99%; at KRas G13D, 97%; on KRas Q61H it was 97%. Further, the half-maximal inhibitory concentration (IC50) with MKN1 cells was 7 nM; in the test on PSN1 cells, 3620 nM; in the test on ASPC1 cells it was 2 nM; with H727 cells it was 3 nM; with A549 cells, 7 nM; in the test on H460 cells it was 11 nM. Moreover, the IC50 in the test on HCT116 cells was 45 nM; with H358 cells, 1 nM; on KRas G12D, under 2 nM; at KRas G12R, under 2 nM; on KRas G12V, under 2 nM. Further, the inhibition at 0.1 µM in the test with A549 cells stood at 85%; in the test on H358 cells, 98%.
